# Entries after “also recorded” stand apart in the source; their conditions may differ.
# Legend:
# [1] = target: sigma-1 receptors in tumour and brain (Rattus norvegicus, UniProt Q9R0C9); experiment: microPET scanning of 11C-SA4503 in C6 glioma-bearing Wistar rats
# [2] = Ex vivo biodistribution of 11C-SA4503 in C6 glioma-bearing Wistar rats; conditions: for SUV of 11C, C6 tumour / SUV of 11C, Cerebellum / SUV of 11C, Cerebral cortex: 60 min after injection
# [3] = tested on: endogenous steroid levels in the brain (progesterone, pregnenolone); conditions: male rats, sodium pentobarbital 0.2 mmol/kg i.p.; cited from earlier work
# [4] = target: cellular sigma receptors (C6 rat glioma cells) (Rattus norvegicus, UniProt Q9R0C9); experiment: Competition with 11C-SA4503 binding to intact C6 glioma cell monolayers; conditions: for competition with 11C-SA4503 for binding to cellular sigma receptors: 50 µM competitor added to normal growth medium (DMEM with 7.5% FCS); for reduction of 11C-SA4503 radioligand binding to C6 cells: 50 µM competitor, steroid-free medium; for rank order of potency as competitor of 11C-SA4503 binding: C6 cells, both normal and steroid-depleted medium, 50 µM
# Plasma progesterone = conditions: female rats; cited from earlier work
# [5] = prolonged pentobarbital anaesthesia vs control
# [6] = progesterone 3 x 10 mg i.p. in arachid oil vs arachid oil
# [7] = prolonged pentobarbital anaesthesia, n = 5
# cellular sigma receptors (C6 rat glioma cells), sequence (Q9R0C9 whole entry): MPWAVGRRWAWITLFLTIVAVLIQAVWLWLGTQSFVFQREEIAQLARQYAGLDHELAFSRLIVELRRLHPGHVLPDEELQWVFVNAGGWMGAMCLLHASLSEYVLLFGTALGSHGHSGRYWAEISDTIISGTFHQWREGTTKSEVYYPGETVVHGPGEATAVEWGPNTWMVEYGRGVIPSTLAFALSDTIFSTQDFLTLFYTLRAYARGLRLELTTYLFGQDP
# sigma-1 receptors in tumour and brain, sequence (Q9R0C9 whole entry): as above
compound,measurement,setting,value
CCCC(C)C1(CC)C(=O)NC(=O)NC1=O (stereo not drawn) [pentobarbital],effect on kinetics of 11C-SA4503 radioactivity in blood pool (right lung),[1]; prolonged pentobarbital anaesthesia (>3.5 h) vs short (<20 min),unaffected; also recorded: did not significantly affect
same,effect on amount of 11C-SA4503 radioactivity in the liver (biodistribution),[2]; [5],significantly decreased
same,effect on plasma levels of 11C-SA4503 radioactivity (biodistribution),[2]; [5],not changed
same,"effect on sigma ligand binding in C6 tumour, brain (cerebellum, cerebral cortex), bone, bone marrow, large intestine, blood cells and spleen (biodistribution)",[2]; [5],significant increase
same,"decline of endogenous steroid levels in the brain (progesterone, pregnenolone)",[3],> 70%
same,inhibition of 11C-SA4503 binding to C6 cells,[4]; up to 1 mM in normal medium,did not result in any inhibition
same,effect on plasma progesterone,Plasma progesterone,decreased
C[C@]12CC[C@H]3[C@@H](CCC4=CC(=O)CC[C@@]43C)[C@@H]1CC[C@@H]2O [testosterone],competition with 11C-SA4503 for binding to cellular sigma receptors,[4],measurable competition
same,reduction of 11C-SA4503 radioligand binding to C6 cells,[4],40%
same,rank order of potency as competitor of 11C-SA4503 binding,[4],progesterone > androstanolone = testosterone = allopregnanolone > DHEA-S
"C[C@]12CCC(=O)C[C@@H]1CC[C@@H]1[C@@H]2CC[C@]2(C)[C@@H](O)CC[C@@H]12 [androstanolone, 5α-androstan-17β-ol-3-one]",competition with 11C-SA4503 for binding to cellular sigma receptors,[4],measurable competition
same,rank order of potency as competitor of 11C-SA4503 binding,[4],progesterone > androstanolone = testosterone = allopregnanolone > DHEA-S
CC(=O)[C@H]1CC[C@H]2[C@@H]3CCC4=CC(=O)CC[C@]4(C)[C@H]3CC[C@]12C [progesterone],effect on 11C-SA4503 tracer kinetics in blood pool (microPET),[1]; [6],did not significantly affect; also recorded: not accompanied by any significant change
same,effect on 11C-SA4503 tracer kinetics in brain (microPET),[1]; [6],did not significantly affect
same,decrease of sigma ligand (11C-SA4503) binding in C6 tumour (biodistribution),"[2]; progesterone 3 x 10 mg i.p. vs arachid oil, 60 min after tracer",31%
"C[C@]12CC[C@H](OS(=O)(=O)[O-])CC1=CC[C@@H]1[C@@H]2CC[C@]2(C)C(=O)CC[C@@H]12.[Na+] [DHEA-S, dehydroepiandrosterone 3-sulphate sodium salt]",competition with 11C-SA4503 for binding to cellular sigma receptors,[4],no statistically significant effect
same,reduction of 11C-SA4503 radioligand binding to C6 cells,[4],significant decrease
same,rank order of potency as competitor of 11C-SA4503 binding,[4],progesterone > androstanolone = testosterone = allopregnanolone > DHEA-S
COc1ccc(CCN2CCN(CCCc3ccccc3)CC2)cc1OC [11C-SA4503],"SUV of 11C, C6 tumour","[2]; control (arachid oil), n = 4",0.83
same,"SUV of 11C, Cerebellum","[2]; control (arachid oil), n = 4",1.66
same,"SUV of 11C, Cerebral cortex","[2]; control (arachid oil), n = 4",1.50
same,"SUV of 11C, C6 tumour",[2]; [7],1.52
same,"SUV of 11C, Cerebellum",[2]; [7],2.41
same,"SUV of 11C, Cerebral cortex",[2]; [7],2.38

# Source: article PMC2691528 (European Journal of Nuclear Medicine and Molecular Imaging, 2009)
